Reference: patent US7473527B2, “Compounds promoting delivery of genes” (The UAB Research Foundation, priority 2002, dated 2009)

Key:
Format in all cases: cell-based
HT29 cells [1] = assay: Adenovirus luciferase gene transfer into confluent HT29 cells; conditions: for activation of adenovirus gene transfer (luciferase): 100 micromolar, procedure of Example 1 (MOI 50, assay 48 hours later), screen of 1032 NSC library compounds; for activation of adenovirus gene transfer (luciferase activity): MOI 1, 3 or 10, compound 30 nM, 300 nM, 10 uM, 30 uM or 100 uM, 48 hours
Experimental: HT29 cells are grown in 96-well plates. The cells are seeded at near confluency, about 300,000 cells per well, and infected with adenovirus 3-4 days later. […] For screening purposes, cells are grown on plastic. […] The activity of candidate compounds may be also confirmed using polarized monolayers grown on filters. Once confluent, HT29 cells are very difficult to transduce with adenoviral constructs. Fewer than 1 in 100 cells express adenoviral transgenes at multiplicity of infection (MOI) of approximately 50. A replication deficient adenovirus encoding firefly luciferase or the EGFP at an MOI of 50 for each well of cells in low serum medium is applied for 4 hours at 37° C. Confluent HeLa cells are used as a positive control. A set of cells is incubated with virus but no gene transfer activating compound as a negative control. Test drugs are incubated along with the virus. Forty-eight hours later, the cells are assayed for luciferase by standard techniques. Luciferase is assayed using a commercially available kit (Promega) which allows quantitative measurements of adenoviral gene transfer.
(§1) FIGS. 2A and 2B show a comparison of luciferase expression (y-axis, light units) vs. MOI (x-axis) in HeLa and HT29 cells infected with adenovirus under various conditions. For these studies, cells are grown in 96-well plates. The HT29 cells are seeded at near confluency, about 300,000 cells per well, and infected with adenovirus 3-4 days later. The cells are infected with luciferase-expressing, replication-deficient adenovirus at MOIs of 1, 3 or 10 by applying the virus to wells of cells in low serum medium for 4 hours at 37° C. In addition, the cells are incubated with gene transfer activating compound 675865 at a concentration of 30 nM, 300 nM, 10 uM, 30 uM or 100 uM along with the virus. A control set of cells is incubated with virus at MOIs of 1, 3 or 10, but no gene transfer activating compound is included. Forty-eight hours later, the cells are assayed for luciferase activity by standard techniques. […] FIGS. 3A and 3B present data from these experiments in which luciferase expression (y-axis, light units) is plotted vs. compound 675865 concentration (x-axis).
as §1, with “6A” for “2A”, “6B” for “2B”, “143491” for “675865”, “7A” for “3A”, “7B” for “3B”
(§2) Luciferase activity is measured using a commercially available assay kit (Bright-Glo™, Promega) designed for high throughput screening. Briefly, the Bright-Glo™ substrate is dissolved in Bright-Glo™ assay buffer at room temperature. 50 μl of the premixed Bright-Glo™ reagent is directly added to each well of the assay plate. Luminescence is measured in a microluminometer (Harta Instrument, Gaithersburg, Md.).

HeLa and HT29 cells = assay: Adeno-associated virus luciferase gene transfer into HeLa and HT29 cells; conditions: MOI 2.78, 8.33 or 22, compound 30 nM to 100 uM, 48 hours
Experimental: FIGS. 8A and 8B show a comparison of luciferase expression (y-axis, light units) vs. MOI (x-axis) in HeLa and HT29 cells infected with adeno-associated virus under various conditions. For these studies, cells are grown as described in Example 8. The HT29 cells are seeded at near confluency, about 300,000 cells per well, and infected with adenovirus 3-4 days later. The cells are infected with luciferase-expressing, adeno-associated virus at MOIs of 2.78, 8.33 or 22 by applying the virus to wells of cells in low serum medium for 4 hours at 37° C. In addition, the cells are incubated with gene transfer activating compound 143491 at a concentration of 30 nM, 300 nM, 10 uM, 30 uM or 100 uM along with the virus. A control set of cells is incubated with virus at MOIs of 2.78, 8.33 or 22, but no gene transfer activating compound is included. Forty-eight hours later, the cells are assayed for luciferase activity by standard techniques. Luciferase activity is enhanced in cells treated with compound 143491 compared with controls. […]
(§3) Luciferase activity is measured using a commercially available assay kit (Bright-Glo™, Promega) designed for high throughput screening. […] Luminescence is measured in a microluminometer (Harta Instrument, Gaithersburg, Md.).

HT29 cells [2] = assay: Adenovirus EGFP gene transfer, fluorescence microscopy; conditions: 100 micromolar compound, adenovirus EGFP MOI 0.1-10, 4 hours
Experimental: HT29 or HeLa cells are grown in 96-well plates. The HT29 cells are seeded at near confluency, about 300,000 cells per well, and infected with adenovirus 3-4 days later. Confluent HeLa cells are used as a positive control. […] A replication deficient adenovirus encoding the EGFP gene is applied at an MOI of 0.1-10 to wells of cells in low serum medium for 4 hours at 37° C. Gene transfer activating compounds are incubated along with the virus at concentrations of 100 micromolar. Cells are visualized with a fluorescent microscope where green fluorescence indicates EGFP expression. A set of cells is incubated with virus but no gene transfer activating compound.

Calu3 cells = assay: Adenovirus luciferase gene transfer into Calu3 cells grown on filters or plastic; conditions: 40 μm compound; 10 MOI (FIG. 4A)
Experimental: Lung epithelial cells which form tight junctions in vitro, Calu3, are grown on filters (Corning Costar Transwell®—polyester—pore size 0.4 μm) or plastic well allowing apical and basolateral specialization to occur.
Calu3 cells grown as described in Example 9 are incubated with adenovirus at 10 MOI and various compounds at a concentration of 40 micromolar. FIG. 4B indicates luciferase activity measured under these conditions.
Calu3 cells grown as described in Example 9 are incubated with luciferase-expressing adenovirus and various gene transfer activating compounds.
as §2

HT29 cells [3] = assay: Lentivirus luciferase gene transfer into HT29 cells; conditions: MOI 0.002, 0.02 or 0.2, compound 30 nM to 100 uM, 48 hours
Experimental: FIG. 5A show a comparison of luciferase expression (y-axis, light units) vs. MOI (x-axis) in HT29 cells infected with lentivirus under various conditions. For these studies, cells are grown in 96-well plates as described in Example 8. The HT29 cells are seeded at near confluency, about 300,000 cells per well, and infected with a lentivirus vector expressing luciferase 3-4 days later. The cells are infected with lentivirus at MOIs of 0.002, 0.02 or 0.2 by applying the virus to wells of cells in low serum medium for 4 hours at 37° C. In addition, the cells are incubated with gene transfer activating compound 675865 at a concentration of 30 nM, 300 nM, 10 uM, 30 uM or 100 uM along with the virus. A control set of cells is incubated with virus at MOIs of 0.002, 0.02 or 0.2 but no gene transfer activating compound is included. Forty-eight hours later, the cells are assayed for luciferase activity by standard techniques.
FIG. 5B present data from these experiments in which luciferase expression (y-axis, light units) is plotted vs. compound 675865 concentration (x-axis).
as §3, with “screening. Briefly, the Bright-Glo™ substrate is dissolved in Bright-Glo™ assay buffer at room temperature.” for “screening.”

`O=C(CC(=O)c1cc(Cl)ccc1O)c1cccnc1` [NSC 73609] was tested. Which “activation of adenovirus gene transfer (luciferase)” value (“activation … (luciferase)” for short) (HT29 cells [1]) did it give?
The value was “activation of adenovirus gene transfer”.

Which “activation … (luciferase)” value (HT29 cells [1]) does the source give for `O=C(O)c1ccccc1N=Cc1ccc(N(CCCl)CCCl)cc1` [NSC 101492] here?
The value was “activation of adenovirus gene transfer”.

How did the “activation … (luciferase)” value (HT29 cells [1]) turn out when `CCCCCCCCCCCCCC[As](=O)(O)O` [NSC 106191] was run?
Its value is “activation of adenovirus gene transfer”.

How did the “activation … (luciferase)” value (HT29 cells [1]) turn out when `CN(C)C(=O)CCCc1ccc(N(CCCl)CCCl)cc1` [NSC 108613] was run?
The value was “activation of adenovirus gene transfer”.

`CN(C)CCCNc1c2ccccc2nc2ccc(F)cc12.Cl` [NSC 109325] was tested. Which “activation … (luciferase)” value (HT29 cells [1]) did it give?
Its value is “activation of adenovirus gene transfer”.

Which “activation … (luciferase)” value (HT29 cells [1]) does the source give for `CC1=C(C)C(C#N)(C(=O)CBr)C(=N)O1` (stereo not shown) [NSC 128720] here?
Its value is “activation of adenovirus gene transfer”.

`COc1cccc2c1C(=O)c1c(O)c3c(c(O)c1C2=O)CC(O)(/C(C)=N/O)CC3OC1CC(N)C(O)C(C)O1` (stereo not shown) [NSC 143491] was tested. Which “activation … (luciferase)” value (HT29 cells [1]) did it give?
The value was “activation of adenovirus gene transfer”.

What about the “activation of adenovirus gene transfer (luciferase activity)” value (HT29 cells [1]) of the same compound?
The value was “activation of adenovirus gene transfer”.

And the “luciferase activity compared with controls, adeno-associated virus vector” value (HeLa and HT29 cells)?
The value was “enhanced”.

For `COc1ccc(CC2C(=O)NC(C)C(=O)N(C)C3C(=O)N(C)C(Cc4ccc(O)c(c4)Oc4ccc(cc4)C3O)C(=O)NC(C)C(=O)NC(C)C(=O)N2C)cc1` (stereo not shown) [NSC 259968], which “activation … (luciferase)” value (HT29 cells [1]) is on record?
The value was “activation of adenovirus gene transfer”.

For `CN(C)CCCN=c1c2ccccc2n(C)c2[nH]c(=O)n(C)c(=O)c12` [NSC 373989], which “activation … (luciferase)” value (HT29 cells [1]) is on record?
Its value is “activation of adenovirus gene transfer”.

`Nc1ncnc2c(C3OC(CO)C(O)C3O)nsc12` (stereo not shown) [NSC 675865] was tested. Which “activation … (luciferase)” value (HT29 cells [1]) did it give?
The value was “activation of adenovirus gene transfer”.

What about the “activation of adenovirus gene transfer (luciferase activity)” value (HT29 cells [1]) of the same compound?
The value was “activation of adenovirus gene transfer”.

And the “activation of adenovirus gene transfer (EGFP green fluorescence)” value (HT29 cells [2])?
The value was “activation of adenovirus gene transfer”.

And the “luciferase activity in Calu3 cells infected with luciferase expressing adenovirus” value (Calu3 cells)?
Its value is “increased luciferase activity”.

And the “luciferase activity, lentivirus vector” value (HT29 cells [3])?
Its value is “enhancement of luciferase activity”.
